Structures can show the parent of a compound that is named as a salt. The source made the active and inactive calls. No cut-off for these calls is given here.
Columns and labels:
[1] = Inhibition of Influenza A virus (A/California/07/2009(H1N1)) neuraminidase by DNA-linked inhibitor antibody assay
[2] = Inhibition of biotinylated 5-(4-((Z)-3-Carboxy-3-hydroxyacryloyl)-4-(4-chlorobenzyl)piperidine-1-carbonyl)-2-((13,35-dioxo-39-((3aR,4R,6aS)-2-oxohexahydro-1H-thieno[3,4-d]imidazole-4-yl)-3,6,9,16,19,22,25,28,31-nonaoxa-12,34-diazanonatriacontyl)oxy)benzoic acid binding to Influenza A virus (A/California/07/2009(H1N1)) N-terminal GST-tagged polymerase acidic subunit N-terminal domain expressed in Escherichia coli BL21 (DE3) RIL cells measured after 120 mins by Alphascreen assay
[3] = test system: Influenza A virus (A/California/07/2009(H1N1)); assay: Inhibition of Influenza A virus (A/California/07/2009(H1N1)) neuraminidase at 400 uM by DNA-linked inhibitor antibody assay
[4] = test system: Influenza A virus (A/California/07/2009(H1N1)); assay: (§1) Inhibition of endonuclease activity of Influenza A virus (A/California/07/2009(H1N1)) N-terminal GST-tagged polymerase acidic subunit N-terminal domain expressed in Escherichia coli BL21 (DE3) RIL cells at 0.01 to 100 uM using single-stranded circular DNA M13mp18 as substrate measured after 4 hrs by GelRed-staining based agarose gel electrophoresis; conditions: dose 0.01-100 µM
[5] = test system: Influenza A virus
Description: Antiviral activity against Influenza A virus (A/Puerto Rico/8/1934(H1N1)) assessed as reduction in viral transcription

[6] = test system: Influenza A virus (A/California/07/2009(H1N1)); assay: as §1, with “cells” for “cells at 0.01 to 100 uM”

Row | Compound | IC50 [2] [µM] | also measured
1 | CCC(CC)O[C@@H]1C=C(C(=O)O)C[C@H](N)[C@H]1NC(C)=O [OSELTAMIVIR CARBOXYLATE] |  | Ki [1]: 0.039 µM
2 | C[C@@H]1O[C@@H](Oc2c(-c3cc(O)c(O)c(O)c3)oc3cc(O)cc(O)c3c2=O)[C@H](O)[C@H](O)[C@H]1O | 1.8 | 
3 | O=C(/C=C/c1ccc(O)c(O)c1)O[C@@H]1C[C@](O)(C(=O)O)C[C@@H](O)[C@H]1O [CHLOROGENIC ACID] | > 50 | inhibition [3]: inactive
4 | O=c1cc(-c2cccc(O)c2O)oc2cc(O)cc(O)c12 | 17 | 
5 | O=c1c(O)c(-c2ccc(O)c(O)c2)oc2cc(O)cc(O)c12 [QUERCETIN] | 0.67 | inhibition [4]: Active; inhibition [3]: inactive
6 | O=C(O)/C(O)=C/C(=O)C1(Cc2ccc(Cl)cc2)CCN(Cc2ccccc2)CC1 | 0.026 | IC50 [5]: 0.43 µM
7 | O=c1cc(-c2ccc(O)c(O)c2)[nH]c2cc(O)cc(O)c12 |  | inhibition [6]: Active
8 | O=c1c(O)c(-c2ccc(O)c(O)c2)oc2cc(O)ccc12 [FISETIN] | 0.96 | 
9 | O=C(c1ccc(O)c(O)c1)C1(O)Oc2cc(O)cc(O)c2C1=O (stereo not drawn) | 9.8 | 
10 | O=c1c(O[C@@H]2OC[C@H](O)[C@H](O)[C@H]2O)c(-c2ccc(O)c(O)c2)oc2cc(O)cc(O)c12 [GUAJAVERIN] | 17 | 
11 | COc1ccc(-c2cc(=O)c3c(O)cc(O)cc3o2)cc1O [DIOSMETIN] | > 50 | 
12 | Oc1cc(O)c2c(c1)O[C@H](c1cc(O)c(O)c(O)c1)[C@H](O)C2 [EPIGALLOCATECHIN] | 3.3 | 
13 | O=c1cc(-c2ccc(O)c(O)c2)oc2cccc(O)c12 | 1.3 | 
14 | O=C1C[C@@H](c2ccc(O)c(O)c2)Oc2cc(O)cc(O)c21 [ERIODICTYOL] | 18 | 
15 | O=c1cc(-c2cccc(O)c2)oc2cc(O)cc(O)c12 | > 50 | 
16 | O=c1cc(-c2cc(O)c(O)c(O)c2)oc2cc(O)cc(O)c12 [TRICETIN] | 0.16 | 
17 | CC(C)=CCC1=C(O)C(=O)c2ccccc2C1=O [LAPACHOL] | 19 | 
18 | O=c1cc(-c2ccc(O)cc2)oc2cc(O)cc(O)c12 [APIGENIN] | > 50 | 
19 | O=c1cc(-c2ccc(O)c(O)c2)oc2cc(O)cc(O)c12 [LUTEOLIN] | 0.072 | inhibition [6]: Active; inhibition [3]: inactive
20 | Oc1cc(O)c2c(c1)O[C@H](c1ccc(O)c(O)c1)[C@@H](O)C2 [CIANIDANOL] | 42 | 

Row | Compound | IC50 [2] [µM] | also measured
21 | CCCCC(=O)C1=C(O)C(=O)c2c(O)c(O)cc(O)c2C1=O | 0.29 | inhibition [6]: Active; inhibition [3]: inactive
22 | COc1cc(O)c2c(=O)c(OC)c(-c3ccc(OC)c(OC)c3)oc2c1 [RETUSIN] | > 50 | 
23 | O=c1c(O)c(-c2ccc(O)cc2)oc2cc(O)cc(O)c12 [KAEMPFEROL] | 16 | 
24 | O=c1cc(-c2ccc(O)c(O)c2)oc2ccccc12 | 2.4 | 
25 | O=c1c(O)c(-c2ccc(O)cc2O)oc2cc(O)cc(O)c12 [MORIN] | 9 | 
26 | O=C(/C=C(O)/C=C/c1ccc(O)c(O)c1)/C=C/c1ccc(O)c(O)c1 | 1.7 | inhibition [6]: Active; inhibition [3]: inactive
27 | Cc1cc2c(C(C)C)c(O)c(O)c(C=O)c2c(O)c1-c1c(C)cc2c(C(C)C)c(O)c(O)c(C=O)c2c1O [GOSSYPOL] | 13 | 
28 | COc1c(O)cc2oc(-c3ccc(O)c(O)c3)cc(=O)c2c1O [EUPAFOLIN] | 0.93 | 
29 | O=c1cc(-c2ccc(O)c(O)c2)oc2cc(O)c([C@@H]3O[C@H](CO)[C@@H](O)[C@H](O)[C@H]3O)c(O)c12 [ISOORIENTIN] | > 50 | 
30 | O=c1c(O)cccc2cc(O)c(O)c(O)c12 [PURPUROGALLIN] | 1.5 | 
31 | CCn1cc(C(=O)O)c(=O)c2ccc(C)nc21 [NALIDIXIC ACID] | > 50 | 
32 | O=c1oc(-c2ccc(O)c(O)c2)cc2cccc(O)c12 [THUNBERGINOL A] | 1.4 | 
33 | O=c1cc(-c2ccc(O)cc2)oc2c([C@@H]3O[C@H](CO)[C@@H](O)[C@H](O)[C@H]3O)c(O)cc(O)c12 [VITEXIN] | 1.9 | inhibition [3]: inactive
34 | COc1cc(/C=C/C(=O)CC(=O)/C=C/c2ccc(O)c(OC)c2)ccc1O [CURCUMIN] | 25 | 
35 | COc1cc([C@@H]2[C@H]3CO[C@@]4(C)C(=O)[C@@H]2C=C([C@H]2Oc5cc(O)cc(O)c5C(=O)[C@@H]2O)[C@@H]34)ccc1O | > 50 | 
36 | O=C(/C=C(O)/C=C/c1ccc(O)cc1)/C=C/c1ccc(O)cc1 | > 50 | 
37 | O=c1cc(-c2cccc(O)c2)oc2cccc(O)c12 | > 50 | 
38 | COc1cc([C@H]2Oc3cc([C@H]4Oc5cc(O)cc(O)c5C(=O)[C@@H]4O)ccc3O[C@@H]2CO)ccc1O [SILYBIN A] | > 50 | 
39 | O=c1c(O)c(-c2ccc(O)c(O)c2)[nH]c2cc(O)cc(O)c12 | 0.2 | 
40 | O=C(O[C@@H]1Cc2c(O)cc(O)cc2O[C@@H]1c1cc(O)c(O)c(O)c1)c1cc(O)c(O)c(O)c1 [EPIGALOCATECHIN GALLATE] | 0.87 | inhibition [6]: Active; inhibition [3]: inactive

Row | Compound | IC50 [2] [µM] | also measured
41 | O=C1c2c(O)cc(O)cc2O[C@H](c2cc(O)c(O)c(O)c2)[C@H]1O [AMPELOPSIN] | 22 | 
42 | COc1cc(OC)c2c(=O)cc(-c3cc(OC)c(OC)c(OC)c3)oc2c1 | 1.8 | 
43 | O=c1cc(-c2ccc(O)c(O)c2)oc2c([C@@H]3O[C@H](CO)[C@@H](O)[C@H](O)[C@H]3O)c(O)cc(O)c12 [ORIENTIN] | 0.043 | 
44 | Oc1ccc(C2CNCCc3c2cc(O)c(O)c3Cl)cc1 (stereo not drawn) [FENOLDOPAM MESYLATE] | 31 | 
45 | O=C(NC(O)C(=O)O)c1ccccc1 (stereo not drawn) | > 50 | 
46 | O=C1c2c(O)c(=O)ccn2N([C@@H]2c3ccccc3SCc3c2ccc(F)c3F)[C@@H]2COCCN12 [BALOXAVIR] | 0.024 | 
47 | Oc1cc(O)c2c(c1)O[C@H](c1ccc(O)c(O)c1)[C@H](O)C2 [(-)-EPICATECHIN] | > 50 | 
48 | Oc1cc(O)c2c(c1)O[C@@H](c1ccc(O)c(O)c1)[C@H](O)C2 [(-)-CATECHIN] | > 50 | 
49 | COc1cc(OC)c2c(=O)c(OC)c(-c3ccc(OC)c(OC)c3)oc2c1 | > 50 | 
50 | O=c1c(-c2ccc(O)cc2)coc2cc(O)cc(O)c12 [GENISTEIN] | > 50 | 
51 | O=c1c(O)c(-c2cc(O)c(O)c(O)c2)oc2cc(O)cc(O)c12 [MYRICETIN] | 0.76 | inhibition [6]: Active; inhibition [3]: inactive
52 | COc1ccc(/C=C/C(=O)/C=C(O)/C=C/c2ccc(OC)c(OC)c2)cc1OC [DIMETHYLCURCUMIN] | > 50 | 
53 | O=C1N[C@@H]2C(=C[C@H](O)[C@@H](O)[C@H]2O)c2cc3c(c(O)c21)OCO3 [NARCICLASINE] | > 50 | 
54 | O=C1c2c(O)cc(O)cc2O[C@H](c2ccc(O)c(O)c2)[C@H]1O [(+)-TAXIFOLIN] | 50 | 
55 | COc1cc([C@@H]2Oc3c(O)cc([C@H]4Oc5cc(O)cc(O)c5C(=O)[C@@H]4O)cc3[C@H]2CO)ccc1O [SILICRISTIN A] | > 50 | 
56 | O=c1cc(-c2ccc(O)c(O)c2)oc2cc(O[C@@H]3O[C@H](CO)[C@@H](O)[C@H](O)[C@H]3O)cc(O)c12 [GALUTEOLIN] | 32 | 
57 | O=c1cc(-c2ccccc2O)oc2cc(O)cc(O)c12 | > 50 | 
58 | O=C1C=C(O)C(=O)c2c(O)c(O)cc(O)c21 | 0.43 | 

Source: ChEMBL document CHEMBL4706556, “Unraveling the anti-influenza effect of flavonoids: Experimental validation of luteolin and its congeners as potent influenza endonuclease inhibitors” (Eur J Med Chem, 2020)
